≈ marks a conversion by molar mass, not a printed value.
Experiments:
Format in all cases: functional
Staphylococcus aureus [1] = test: Antibacterial activity against methicillin resistant Staphylococcus aureus clinical isolate 003
Enterococcus faecalis [2] = test: Antibacterial activity against multidrug resistant Enterococcus faecalis ATCC 51299
Staphylococcus aureus [3] = test: Antibacterial activity against methicillin resistant Staphylococcus aureus clinical isolate 031
Staphylococcus aureus [4] = test: Antibacterial activity against Staphylococcus aureus clinical isolate 29
Staphylococcus aureus [5] = test: Antibacterial activity against methicillin resistant Staphylococcus aureus clinical isolate 011
Enterococcus faecalis [6] = test: Antibacterial activity against Enterococcus faecalis clinical isolate 7
Staphylococcus aureus [7] = test: Antibacterial activity against Staphylococcus aureus clinical isolate 31
Enterococcus faecalis [8] = test: Antibacterial activity against Enterococcus faecalis clinical isolate 13

SMILES	MIC (Staphylococcus aureus [1])	MIC (Enterococcus faecalis [2])	MIC (Staphylococcus aureus [3])	MIC (Staphylococcus aureus [4])	MIC (Staphylococcus aureus [5])	MIC (Enterococcus faecalis [6])	MIC (Staphylococcus aureus [7])	MIC (Enterococcus faecalis [8])
COc1cc(O)c2c(=O)c(CCC=C(C)C)c(-c3ccc(O)cc3O)oc2c1	16 µg/mL (≈ 41.8 µM)	32 µg/mL (≈ 83.7 µM)						
CCCCCCCCCCCCc1c(-c2ccc(O)cc2O)oc2cc(OC)cc(O)c2c1=O	16 µg/mL (≈ 34.1 µM)	32 µg/mL (≈ 68.3 µM)						
CCCCCCc1c(-c2ccc(OCC(=O)CN[C@H](CCCNC(=N)N)C(N)=O)cc2OCC(=O)CN[C@H](CCCNC(=N)N)C(N)=O)oc2cc(OC)cc(O)c2c1=O	8 µg/mL (≈ 9.54 µM)	> 64 µg/mL	8 µg/mL (≈ 9.54 µM)	32 µg/mL (≈ 38.1 µM)	32 µg/mL (≈ 38.1 µM)	> 64 µg/mL	8 µg/mL (≈ 9.54 µM)	> 64 µg/mL
COc1ccc(-c2oc3cc(OC)cc(OC)c3c(=O)c2CCCCc2ccccc2)c(OC)c1	> 64 µg/mL	> 64 µg/mL						
CCCCCCc1c(-c2ccc(OCCCCNCc3ccc(F)cc3)cc2OCCCCNCc2ccc(F)cc2)oc2cc(OC)cc(O)c2c1=O	16 µg/mL (≈ 21.5 µM)	16 µg/mL (≈ 21.5 µM)	16 µg/mL (≈ 21.5 µM)	16 µg/mL (≈ 21.5 µM)	16 µg/mL (≈ 21.5 µM)	32 µg/mL (≈ 43.1 µM)	8 µg/mL (≈ 10.8 µM)	8 µg/mL (≈ 10.8 µM)
COc1ccc(-c2oc3cc(OC)cc(OC)c3c(=O)c2CCC/C=C(\C)CCC=C(C)C)c(OC)c1	> 64 µg/mL	> 64 µg/mL						
C=CCc1c(-c2ccc(OC)cc2OC)oc2cc(OC)cc(OC)c2c1=O	> 64 µg/mL	> 64 µg/mL						
CCCCCCNCCCCOc1ccc(-c2oc3cc(OC)cc(O)c3c(=O)c2CCCCCC)c(OCCCCNCCCCCC)c1	8 µg/mL (≈ 11.5 µM)	64 µg/mL (≈ 92.1 µM)	8 µg/mL (≈ 11.5 µM)	16 µg/mL (≈ 23 µM)	16 µg/mL (≈ 23 µM)	32 µg/mL (≈ 46 µM)	4 µg/mL (≈ 5.76 µM)	64 µg/mL (≈ 92.1 µM)
CCCCCCc1c(-c2ccc(OCCN(C)C)cc2OCCN(C)C)oc2cc(OC)cc(O)c2c1=O	1 µg/mL (≈ 1.9 µM)	4 µg/mL (≈ 7.59 µM)	4 µg/mL (≈ 7.59 µM)	1 µg/mL (≈ 1.9 µM)	2 µg/mL (≈ 3.8 µM)	4 µg/mL (≈ 7.59 µM)	2 µg/mL (≈ 3.8 µM)	2 µg/mL (≈ 3.8 µM)
CCCCCCc1c(-c2ccc(OC)cc2OC)oc2cc(OC)cc(OC)c2c1=O	> 64 µg/mL	> 64 µg/mL						
CCCCc1c(-c2ccc(O)cc2O)oc2cc(O)cc(O)c2c1=O	32 µg/mL (≈ 93.5 µM)	32 µg/mL (≈ 93.5 µM)						
COc1ccc(-c2oc3cc(OC)cc(OC)c3c(=O)c2CCC=C(C)C)c(OC)c1	> 64 µg/mL	> 64 µg/mL						
CCCCCCCCc1c(-c2ccc(O)cc2O)oc2cc(OC)cc(O)c2c1=O	8 µg/mL (≈ 19.4 µM)	16 µg/mL (≈ 38.8 µM)						
CCc1c(-c2ccc(O)cc2O)oc2cc(O)cc(O)c2c1=O	> 64 µg/mL	> 64 µg/mL						
CC(C)=CCCc1c(-c2ccc(O)cc2O)oc2cc(O)cc(O)c2c1=O	32 µg/mL (≈ 86.9 µM)	32 µg/mL (≈ 86.9 µM)						
CCCCCCc1c(-c2ccc(OCCCCNCCC)cc2OCCCCNCCC)oc2cc(OC)cc(O)c2c1=O	2 µg/mL (≈ 3.27 µM)	2 µg/mL (≈ 3.27 µM)	2 µg/mL (≈ 3.27 µM)	2 µg/mL (≈ 3.27 µM)	2 µg/mL (≈ 3.27 µM)	2 µg/mL (≈ 3.27 µM)	2 µg/mL (≈ 3.27 µM)	2 µg/mL (≈ 3.27 µM)
CCCCCCc1c(-c2ccc(OCCCCNCc3ccc(Br)cc3)cc2OCCCCNCc2ccc(Br)cc2)oc2cc(OC)cc(O)c2c1=O	64 µg/mL (≈ 74 µM)	> 64 µg/mL		> 64 µg/mL	64 µg/mL (≈ 74 µM)	> 64 µg/mL	64 µg/mL (≈ 74 µM)	> 64 µg/mL
CCCCCCc1c(-c2ccc(OCCCCN(CCC)CCC)cc2OCCCCN(CCC)CCC)oc2cc(OC)cc(O)c2c1=O	8 µg/mL (≈ 11.5 µM)	16 µg/mL (≈ 23 µM)	16 µg/mL (≈ 23 µM)	16 µg/mL (≈ 23 µM)	8 µg/mL (≈ 11.5 µM)	16 µg/mL (≈ 23 µM)	8 µg/mL (≈ 11.5 µM)	16 µg/mL (≈ 23 µM)
CC(C)=CCc1c(O)ccc(C(=O)[C@@H]2[C@@H](c3ccc(O)cc3O)CC(C)=C[C@H]2c2c(O)cc(O)c3c(=O)c(CC=C(C)C)c(-c4ccc(O)cc4O)oc23)c1O	2.5 µg/mL (≈ 3.29 µM)	5 µg/mL (≈ 6.57 µM)						
CCCCCCCCc1c(-c2ccc(O)cc2O)oc2cc(O)cc(O)c2c1=O	16 µg/mL (≈ 40.2 µM)	16 µg/mL (≈ 40.2 µM)						
CC(C)=CCc1c(-c2ccc(O)cc2O)oc2c(CC=C(C)C)c(O)cc(O)c2c1=O [KUWANON C]	5 µg/mL (≈ 11.8 µM)	10 µg/mL (≈ 23.7 µM)						
CCCCCCCCCCc1c(-c2ccc(O)cc2O)oc2cc(OC)cc(O)c2c1=O	16 µg/mL (≈ 36.3 µM)	16 µg/mL (≈ 36.3 µM)						
CCCCCCCCc1c(-c2ccc(OC)cc2OC)oc2cc(OC)cc(OC)c2c1=O	> 64 µg/mL	> 64 µg/mL						
CCCc1c(-c2ccc(OC)cc2OC)oc2cc(OC)cc(OC)c2c1=O	> 64 µg/mL	> 64 µg/mL						
CCCCc1c(-c2ccc(O)cc2O)oc2cc(OC)cc(O)c2c1=O	16 µg/mL (≈ 44.9 µM)	32 µg/mL (≈ 89.8 µM)						
CCCCCCc1c(-c2ccc(O)cc2O)oc2cc(O)cc(O)c2c1=O	8 µg/mL (≈ 21.6 µM)	16 µg/mL (≈ 43.2 µM)						
CCc1c(-c2ccc(O)cc2O)oc2cc(OC)cc(O)c2c1=O	> 64 µg/mL	64 µg/mL (≈ 195 µM)						
O=c1c(CCCCc2ccccc2)c(-c2ccc(O)cc2O)oc2cc(O)cc(O)c12	16 µg/mL (≈ 38.2 µM)	32 µg/mL (≈ 76.5 µM)						
COc1ccc(-c2cc(=O)c3c(OC)cc(OC)cc3o2)c(OC)c1	> 64 µg/mL	> 64 µg/mL						
CCCCCCCCCCc1c(-c2ccc(O)cc2O)oc2cc(O)cc(O)c2c1=O	16 µg/mL (≈ 37.5 µM)	32 µg/mL (≈ 75 µM)						

From ChEMBL document CHEMBL5512659, “Structure optimizing of flavonoids against both MRSA and VRE” (Eur J Med Chem, 2024)
